Assays:
[1] = target: 4-hydroxyphenylpyruvate dioxygenase (Sus scrofa) (UniProt Q02110); assay: Compound was evaluated for complete competitive inhibition of 4-hydroxyphenylpyruvate dioxygenase (HPPD)
[2] = target: T1, 4-hydroxyphenylpyruvate dioxygenase (Sus scrofa, UniProt Q02110); assay: Compound was evaluated for competitive inhibition of 4-hydroxyphenylpyruvate dioxygenase (HPPD) (complete inhibition was observed at a concentration of 0.5-1.0 mM)
[3] = target: T1, 4-hydroxyphenylpyruvate dioxygenase; assay: The inhibitory activity on pig liver 4-hydroxyphenylpyruvate dioxygenase (HPPD) was evaluated.
[4] = target: T1, 4-hydroxyphenylpyruvate dioxygenase; assay: Inhibitory activity on pig liver 4-hydroxyphenylpyruvate dioxygenase (HPPD) was evaluated

T1 sequence (Q02110 whole entry): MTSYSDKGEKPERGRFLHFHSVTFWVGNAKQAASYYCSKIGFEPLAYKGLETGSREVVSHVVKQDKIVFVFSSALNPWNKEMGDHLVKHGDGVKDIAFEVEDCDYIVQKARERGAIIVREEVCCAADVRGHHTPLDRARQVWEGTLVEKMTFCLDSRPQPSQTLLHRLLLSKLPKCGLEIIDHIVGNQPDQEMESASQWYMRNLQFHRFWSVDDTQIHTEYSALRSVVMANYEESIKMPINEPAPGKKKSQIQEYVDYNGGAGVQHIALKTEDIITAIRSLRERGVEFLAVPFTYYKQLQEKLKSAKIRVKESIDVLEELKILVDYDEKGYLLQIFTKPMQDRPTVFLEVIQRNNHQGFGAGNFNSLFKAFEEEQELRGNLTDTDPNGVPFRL
Chain of 4-hydroxyphenylpyruvate dioxygenase (Sus scrofa) (Q02110 2-393 limits assumed): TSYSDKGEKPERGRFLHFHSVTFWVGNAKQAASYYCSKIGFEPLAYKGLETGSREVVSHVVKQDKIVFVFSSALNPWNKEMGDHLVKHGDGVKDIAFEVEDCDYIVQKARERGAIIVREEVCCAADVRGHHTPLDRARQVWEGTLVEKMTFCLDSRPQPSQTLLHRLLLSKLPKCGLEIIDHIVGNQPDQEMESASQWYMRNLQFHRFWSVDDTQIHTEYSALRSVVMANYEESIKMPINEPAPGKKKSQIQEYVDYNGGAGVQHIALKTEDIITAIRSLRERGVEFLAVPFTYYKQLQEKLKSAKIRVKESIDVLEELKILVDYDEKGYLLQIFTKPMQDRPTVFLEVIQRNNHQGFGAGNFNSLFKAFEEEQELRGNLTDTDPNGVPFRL

`CCC/C(=N\OCC)C1=C(O)CC(CC(C)SCC)CC1=O` (centres undefined) [SETHOXYDIM] gave an IC100 [1] of 1 mM and a Ki [2] of 300000 nM.
For `O=C1CCCC(=O)C1=C(O)c1ccc(C(F)(F)F)cc1[N+](=O)[O-]`, the IC50 [3] was 40 nM.
`CS(=O)(=O)c1ccc(C(O)=C2C(=O)CCCC2=O)c(Cl)c1` showed an IC50 [4] of 45 nM.
